In patent US10016444B2, “Molecules for bone tissue regeneration” (ISTITUTO ORTOPEDICO RIZZOLI, priority 2014, dated 2018):

Tests used:
[1] = test system: human mesenchymal stem cells (MSCs)
Description: Briefly, 5 ml of bone marrow aspirate was obtained from consenting patients who underwent post-traumatic orthopaedic surgery. The mononuclear cells were obtained following centrifugation in a density gradient (Ficoll-Hypaque); the cells thus obtained were washed with PBS, resuspended in a D-MEM culture medium containing 15% FBS, then counted and seeded in plastic flasks at a concentration of 2×10^6 cells/flask T150. After 1 week, the non-adherent cells were removed and the adherent cells expanded in culture up to the concentration of 5000 MSC/cm^2 and used, finally, in the culture passage p.1 for the experiments.
Cytoxicity was evaluated in the culture after 24 h and 72 h by means of the lactate dehydrogenase (LDH) method, using a commercial kit (Cytotoxicity Detection Kit, Roche, Milan). In order to avoid interferences due to components present in serum, the cells were maintained under low serum conditions (5%) in the culture medium.

[2] = test system: human mesenchymal stem cells (MSCs); assay: Cell viability by Toluidine Blue staining of MSCs; format: cell-based; conditions: 72 h, 33 μM
Description: At the end of the period of culture, moreover, the MSCs underwent staining with Toluidine Blue stain in order to evaluate the residual viability, which was then quantified by means of a spectrophotometer (Nanoquant, Tecan Group, Mannedorf, Switzerland).

[3] = Determination of the release of H2S by amperometry; format: physicochemical
Description: Amperometry—the potential release of H2S from the tested compound was evaluated by means of the amperometric method, using an Apollo-4000 Free Radical Analyzer (WPI) connected to mini-electrodes selective for H2S. The experiments were conducted at room temperature in phosphate buffer (NaH2PO4.H2O 0.128 g, Na2HPO4.12H2O 0.597 g, NaCl 4.388 g in 500 mL H2O) at pH 7.4. When required by the experimental protocol, 4 mM L-cysteine was also dissolved in the above-described phosphate buffer, maintaining the pH a 7.4. After stabilisation of the mini-electrodes selective for H2S in 10 mL of buffer, 100 μL of the compound DM-22 solubilised in DMSO was added at the final concentration of 1 mM. The formation of H2S was recorded for 20 minutes. The same experimental procedure was also carried out in the buffer containing L-cysteine. The correspondence between the amperometric currents (recorded in pA) and the concentrations of H2S was determined by means of suitable calibration curves previously obtained using increasing concentrations of NaHS (1 μM, 3 μM, 5 μM, 10 μM) at pH 4.
The curves related to the progressive release of H2S as a function of time were analysed by means of the following equation: Ct=Cmax−(Cmax·e−k·t)
Where Ct is the concentration at time t, Cmax is the maximum concentration obtained during the recording time and the constant k is 0.693/t½, and where t½ is the time it takes to reach half of Cmax. The values of Cmax and t½ were calculated by means of software: Graph Pad Prism 4.0 and expressed as a value±standard error.

human osteoclasts (OCs) [4] = conditions: OCs on Biocoat Osteologic slides, qualitative evaluation
Description: The ability of OCs to perform a physiological function of degrading the inorganic matrix was assessed by means of the ‘Pit Assay’, in which the OCs were cultured on Biocoat Osteologic (BD Bioscience) slides according to the procedure described in detail above.

[5] = test system: human mesenchymal stem cells (MSCs); assay: Cell proliferation of MSCs by tritiated thymidine method; format: cell-based; conditions: 33 μM, both at 24 and 72 h after stimulation, vs unstimulated control
Description: Cell proliferation was measured in the MSCs by means of the tritiated thymidine method, in the presence or absence of stimuli, following a method already published in precedence (Gabusi E. et al. J Cell Physiol. 2011). […] After 48 h, tritiated thymidine (Amersham Pharmacia Biotech Italy, Milan) was added to each well at the final concentration of 2 mCi/ml and the culture further incubated for 18 h at 37° C. Lastly, the plates were aspirated through glass fibre filters and dried and the radioactivity incorporated in the cells, indicative of proliferative activity, was measured by means of a TopCount Microplate Scintillation Counter (Packard Instrument Company, Meriden, Conn.). The data are expressed as cpm (count per minute).

human osteoclasts (OCs) [6] = assay: Differentiation of human osteoclasts (TRAP staining count); format: cell-based; conditions: for inhibition of OC differentiation (number of TRAP-positive mature OCs): monocyte precursors with M-CSF and RANKL, 8 days, 1-33 μM
Description: Human osteoclasts (OCs) were obtained according to a method already described and published (Grassi F. et al. J Cell Physiology 2011 April; 226(4):982-90). Briefly, the OCs were differentiated in vitro starting from monocytic precursors obtained from the peripheral blood of healthy, consenting donors; in particular, whole blood was stratified on Ficoll-Hypaque and the mononuclear cells were obtained by centrifugation. Monocytes were isolated from the latter by immunomagnetic separation of cells positive to the antigen CD11b via a MACS apparatus (Miltenyi Biotech, Calderara di Reno, Bologna). […] The number of mature OCs obtained for each condition of stimulation was then identified by means of a manual count, under a microscope, of the multinuclear cells positive to tartrate-resistant acid phosphatase (TRAP) staining.

[7] = test system: human mesenchymal stem cells (MSCs); assay: Mineralisation assay on MSCs (Alizarin Red); format: cell-based; conditions: for mineralising capacity of MSCs (Alizarin Red): osteogenic conditions, dose dependence
Description: The evaluation of the functional capacity to deposit inorganic matrix on the part of MSC cells was evaluated with an in vitro mineralisation assay, according to an already consolidated method (Grassi F. et al. J. Tissue Eng Reg Med, 2013); MSC cells were maintained under culture for 21 days in the presence of […] of ascorbic acid, 2 mM of β-glycerophosphate and 100 nM of dexamethasone. […] Finally, the mineralised matrix was visualised by staining with Alizarin Red and quantified by spectrophotometry (Nanoquant, Tecan Group, Mannedorf, Switzerland).

O=C(NCCCC(O)(P(=O)(O)O)P(=O)(O)O)c1ccc(N=C=S)cc1 [DM-22]
cytotoxicity (LDH assay) ([1]; 1-33 μM, at both 24 h and 72 h, low serum (5%)): does not induce any cytotoxicity
cytotoxicity (LDH assay) compared to the basal level induced by serum deprivation ([1]; 24 h): significant protection
cellular toxicity (LDH assay) ([1]; 72 h, 33 μM): completely absent
cell viability (Toluidine Blue) compared to the unstimulated control [2]: does not bring about any decrease
concentration of H2S detected after 20 minutes of incubation ([3]; 1 mM compound in phosphate buffer pH 7.4, room temperature, no L-cysteine): approximately 1.5 μM
maximum concentration of H2S detected after 20 minutes of incubation ([3]; 1 mM compound in phosphate buffer pH 7.4 in the presence of 4 mM L-cysteine): approximately 45 μM
liberation of H2S ([3]; summary statement): capable of liberating H2S with slow-release kinetics
inhibition of erosive capacity of OCs (pits, qualitative) (human osteoclasts (OCs) [4]): only at the concentrations of 10 and 33 μM do the eroded areas disappear completely
proliferative activity in MSCs [5]: does not induce any significant decrease in proliferation
times less effective than alendronate in suppressing OCs (human osteoclasts (OCs) [6]; concentrations being equal): 33-100 times
inhibition of OC differentiation (number of TRAP-positive mature OCs) (human osteoclasts (OCs) [6]): statistically significant only at the highest concentration (33 μM)
mineralisation compared to MSCs treated with alendronate ([7]; 21 days, concentrations of 3.3, 10 and 33 μM): significantly greater mineralisation
degree of mineralisation compared to control MSCs ([7]; 21 days, maximum concentration of 33 μM): significantly greater than that of the control MSCs
mineralising capacity of MSCs (Alizarin Red) ([7]; 21 days): dose-dependent capacity to induce mineralisation
range of concentration in which it stimulates the anabolic function and significantly inhibits osteoclasts ([7]; summary statement): 10 to 33 µM

[Na+].[SH-] [NaHS, reference compound]
mineralising capacity of MSCs (Alizarin Red) ([7]; 21 days): respond as expected

NCCCC(O)(P(=O)(O)O)P(=O)(O)O [alendronate, reference compound]
cell viability (Toluidine Blue) compared to the unstimulated control [2]: significant decrease in cell viability
proliferative activity in MSCs [5]: significant inhibition of proliferative activity
inhibition of OC differentiation (number of TRAP-positive mature OCs) (human osteoclasts (OCs) [6]): strong capacity to inhibit OC differentiation starting from the lowest concentration used in the study (1 μM)

[Ca+2].[Cl-].[Cl-] [calcium chloride, reference compound]
mineralising capacity of MSCs (Alizarin Red) ([7]; 21 days): respond as expected
